Measured values: ChEMBL document CHEMBL1143536, “QSAR analyses of conformationally restricted 1,5-diaryl pyrazoles as selective COX-2 inhibitors: application of connection table representation of ligands” (Bioorg Med Chem Lett, 2005)

How the values were obtained:
[1] = In vitro inhibitory concentration against Prostaglandin G/H synthase 1 (COX-1)
[2] = Ratio of inhibitory concentration against prostaglandin G/H synthase 1 to that of prostaglandin G/H synthase 2
[3] = molecular target: T1, Prostaglandin G/H synthase 2 (Homo sapiens, UniProt P35354); test: In vitro inhibitory concentration against Prostaglandin G/H synthase 2 (COX-2)
T1 sequence (P35354 whole entry): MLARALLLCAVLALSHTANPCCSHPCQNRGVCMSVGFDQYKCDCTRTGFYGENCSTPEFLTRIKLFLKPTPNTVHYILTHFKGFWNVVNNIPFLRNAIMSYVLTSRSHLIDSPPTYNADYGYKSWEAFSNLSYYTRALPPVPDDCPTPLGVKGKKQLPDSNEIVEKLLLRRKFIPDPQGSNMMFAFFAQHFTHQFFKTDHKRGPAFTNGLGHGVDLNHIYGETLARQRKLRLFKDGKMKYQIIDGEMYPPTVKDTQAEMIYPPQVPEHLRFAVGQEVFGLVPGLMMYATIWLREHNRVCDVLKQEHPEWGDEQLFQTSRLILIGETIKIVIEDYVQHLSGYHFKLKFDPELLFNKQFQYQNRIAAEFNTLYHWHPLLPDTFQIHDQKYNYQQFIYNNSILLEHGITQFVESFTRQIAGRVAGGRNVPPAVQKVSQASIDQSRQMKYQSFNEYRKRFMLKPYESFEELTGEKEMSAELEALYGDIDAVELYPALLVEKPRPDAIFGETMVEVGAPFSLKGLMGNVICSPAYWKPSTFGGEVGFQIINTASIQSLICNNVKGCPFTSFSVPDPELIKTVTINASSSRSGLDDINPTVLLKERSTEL

Log IC50 [1] | Ratio [2] | IC50 [3] | Compound
-6.1 | 1.56 |  | Cc1ccc2c(c1)CSc1c(C(F)(F)F)nn(-c3ccc(S(N)(=O)=O)cc3)c1-2
-6.12 | 0.7 |  | N#Cc1nn(-c2ccc(S(N)(=O)=O)cc2)c2c1SCc1cc(F)ccc1-2
-4.95 | 2.84 | 15.8 nM | Cc1ccc2c(c1F)CSc1c(C(F)(F)F)nn(-c3ccc(S(N)(=O)=O)cc3)c1-2
-5.01 |  |  | NS(=O)(=O)c1ccc(-n2nc(C(F)(F)F)c3c2-c2ccccc2SC3)cc1
 |  | 32.4 nM | COc1ccc2c(c1F)CSc1c(C(F)F)nn(-c3ccc(S(N)(=O)=O)cc3)c1-2
 |  | 1510 nM | COc1ccc2c(c1F)C[S+]([O-])c1c(C(F)(F)F)nn(-c3ccc(S(N)(=O)=O)cc3)c1-2 (stereo not drawn)
-5.15 | 0.72 |  | NS(=O)(=O)c1ccc(-n2nc(C(F)(F)F)c3c2-c2ccccc2OC3)cc1
-6.52 | 1.36 |  | COc1ccc2c(c1)CSc1c(C(F)(F)F)nn(-c3ccc(S(N)(=O)=O)cc3)c1-2
-5.2 | 2.47 | 20.9 nM | NS(=O)(=O)c1ccc(-n2nc(C(F)(F)F)c3c2-c2cccc(F)c2CS3)cc1
-6.57 | 0.84 |  | NS(=O)(=O)c1ccc(-n2nc(C(F)(F)F)c3c2-c2ccc(F)cc2CS3)cc1
 |  | 75.9 nM | COc1ccc2c(c1F)CSc1c(C(F)(F)F)nn(-c3ccc(S(C)(=O)=O)cc3)c1-2
-5.56 | 2.48 | 8.91 nM | COc1ccc2c(c1F)CSc1c(C(F)(F)F)nn(-c3ccc(S(N)(=O)=O)cc3)c1-2
-6.4 | 1.3 |  | NS(=O)(=O)c1ccc(-n2nc(C(F)(F)F)c3c2-c2ccccc2CS3)cc1
-5.57 | 2.58 | 6.03 nM | NS(=O)(=O)c1ccc(-n2nc(C(F)(F)F)c3c2-c2ccc(F)c(F)c2CS3)cc1
